Tests used:
Type in all cases: functional
CCRF-CEM = experiment: Growth inhibition of human CCRF-CEM cells at 10 uM incubated for 48 hrs by sulforhodamine B assay relative to control; settings: read-out: GI
SR = experiment: Growth inhibition of human SR cells at 10 uM incubated for 48 hrs by sulforhodamine B assay relative to control; settings: read-out: GI
HOP-92 = experiment: Growth inhibition of human HOP92 cells at 10 uM incubated for 48 hrs by sulforhodamine B assay relative to control; settings: HOP-92, 48 h, read-out: GI
SF-268 = experiment: Growth inhibition of human SF268 cells at 10 uM incubated for 48 hrs by sulforhodamine B assay relative to control; settings: SF-268, 48 h, read-out: GI
SNB-75 = experiment: Growth inhibition of human SNB75 cells at 10 uM incubated for 48 hrs by sulforhodamine B assay relative to control; settings: SNB-75, 48 h, read-out: GI
LOX IMVI = experiment: Growth inhibition of human LOXIMVI cells at 10 uM incubated for 48 hrs by sulforhodamine B assay relative to control; settings: read-out: GI
SK-MEL-5 = experiment: Growth inhibition of human SK-MEL-5 cells at 10 uM incubated for 48 hrs by sulforhodamine B assay relative to control; settings: SK-MEL-5, 48 h, read-out: GI
UACC-62 = experiment: Growth inhibition of human UACC62 cells at 10 uM incubated for 48 hrs by sulforhodamine B assay relative to control; settings: UACC-62, 48 h, read-out: GI
OVCAR-8 = experiment: Growth inhibition of human OVCAR8 cells at 10 uM incubated for 48 hrs by sulforhodamine B assay relative to control; settings: OVCAR-8, 48 h, read-out: GI
A498 = experiment: Growth inhibition of human A498 cells at 10 uM incubated for 48 hrs by sulforhodamine B assay relative to control; settings: A498, 48 h, read-out: GI
ACHN = experiment: Growth inhibition of human ACHN cells at 10 uM incubated for 48 hrs by sulforhodamine B assay relative to control; settings: read-out: GI
CAKI-1 = experiment: Growth inhibition of human Caki1 cells at 10 uM incubated for 48 hrs by sulforhodamine B assay relative to control; settings: CAKI-1, 48 h, read-out: GI
RXF 393 = experiment: Growth inhibition of human RXF393 cells at 10 uM incubated for 48 hrs by sulforhodamine B assay relative to control; settings: RXF 393, 48 h, read-out: GI
Hs-578T = experiment: Growth inhibition of human Hs578T cells at 10 uM incubated for 48 hrs by sulforhodamine B assay relative to control; settings: read-out: GI
BT-549 = experiment: Growth inhibition of human BT549 cells at 10 uM incubated for 48 hrs by sulforhodamine B assay relative to control; settings: BT-549, 48 h, read-out: GI
HL-60(TB) = experiment: Growth inhibition of human HL-60(TB) cells at 10 uM incubated for 48 hrs by sulforhodamine B assay relative to control; settings: HL-60, 48 h, read-out: GI
A549 = experiment: Growth inhibition of human A549/ATCC cells at 10 uM incubated for 48 hrs by sulforhodamine B assay relative to control; settings: A549, 48 h, read-out: GI
COLO 205 = experiment: Growth inhibition of human COLO205 cells at 10 uM incubated for 48 hrs by sulforhodamine B assay relative to control; settings: COLO 205, 48 h, read-out: GI
HCT-15 = experiment: Growth inhibition of human HCT15 cells at 10 uM incubated for 48 hrs by sulforhodamine B assay relative to control; settings: HCT-15, 48 h, read-out: GI
HT-29 = experiment: Growth inhibition of human HT-29 cells at 10 uM incubated for 48 hrs by sulforhodamine B assay relative to control; settings: HT-29, 48 h, read-out: GI
KM12 = experiment: Growth inhibition of human KM12 cells at 10 uM incubated for 48 hrs by sulforhodamine B assay relative to control; settings: KM12, 48 h, read-out: GI
SW-620 = experiment: Growth inhibition of human SW620 cells at 10 uM incubated for 48 hrs by sulforhodamine B assay relative to control; settings: SW-620, 48 h, read-out: GI
SF-295 = experiment: Growth inhibition of human SF295 cells at 10 uM incubated for 48 hrs by sulforhodamine B assay relative to control; settings: SF-295, 48 h, read-out: GI
SF-539 = experiment: Growth inhibition of human SF539 cells at 10 uM incubated for 48 hrs by sulforhodamine B assay relative to control; settings: SF-539, 48 h, read-out: GI
M14 = experiment: Growth inhibition of human M14 cells at 10 uM incubated for 48 hrs by sulforhodamine B assay relative to control; settings: M14, 48 h, read-out: GI
IGROV-1 = experiment: Growth inhibition of human IGROV1 cells at 10 uM incubated for 48 hrs by sulforhodamine B assay relative to control; settings: IGROV-1, 48 h, read-out: GI
TK-10 = experiment: Growth inhibition of human TK10 cells at 10 uM incubated for 48 hrs by sulforhodamine B assay relative to control; settings: TK-10, 48 h, read-out: GI

Row | SMILES | inhibition of growth at 10 µM (CCRF-CEM) [%] | inhibition of growth at 10 µM (SR) [%] | inhibition of growth at 10 µM (SF-268) [%] | inhibition of growth at 10 µM (LOX IMVI) [%] | inhibition of growth at 10 µM (SK-MEL-5) [%] | inhibition of growth at 10 µM (UACC-62) [%] | inhibition of growth at 10 µM (OVCAR-8) [%] | inhibition of growth at 10 µM (A498) [%] | inhibition of growth at 10 µM (ACHN) [%] | inhibition of growth at 10 µM (CAKI-1) [%] | inhibition of growth at 10 µM (BT-549) [%] | other results
1 | O=C(CSc1nccc(Nc2ccc(N3CCOCC3)cc2)n1)c1ccc(F)cc1 | 19 | 18 | 35 | 15 | 37 | 28 | 62 | 36 | 24 | 41 | 31 | inhibition of growth at 10 µM (HOP-92): 26%; inhibition of growth at 10 µM (SNB-75): 65%; inhibition of growth at 10 µM (RXF 393): 43%; inhibition of growth at 10 µM (Hs-578T): 39%
2 | CCOC(=O)c1ccc(Nc2ccnc(SCC(=O)c3ccc(C#N)cc3)n2)cc1 | 82 | 46 | 22 | 20 | 62 | 61 | 77 | 50 | 20 | 43 | 50 | inhibition of growth at 10 µM (HL-60(TB)): 24%; inhibition of growth at 10 µM (A549): 39%; inhibition of growth at 10 µM (COLO 205): 29%; inhibition of growth at 10 µM (HCT-15): 24%; inhibition of growth at 10 µM (HT-29): 24%; inhibition of growth at 10 µM (KM12): 45%; inhibition of growth at 10 µM (SW-620): 10%; inhibition of growth at 10 µM (SF-295): 24%; inhibition of growth at 10 µM (SF-539): 17%; inhibition of growth at 10 µM (M14): 49%; inhibition of growth at 10 µM (IGROV-1): 21%; inhibition of growth at 10 µM (TK-10): 10%
